Test results taken from patent US12392782B2, “Characterization of protein binding to per- and polyfluoroalkyl substances” (North Carolina State University, priority 2021, dated 2025).
Like-named read-outs stand apart in the source and are kept apart here.

Assays:
HSA = HSA (Homo sapiens, UniProt P02768); experiment: Differential scanning fluorimetry (DSF) thermal shift assay of HSA binding; details: for bound by HSA: result in words
Protocol: (§1) Assays were also performed in 384-well plates, in which the reactions were performed using half the final volume (10 μL) and the concentration of each reagent was halved compared to those used in the 96-well plates.
(§2) Data are reported as mean values±SEM following background subtraction.
(§3) [formula] Top is the maximal response, bottom is minimal response, P is protein concentration, Kd is dissociation constant, X is ligand concentration, and Y is change in Tm. […] Comparison between protein concentrations and comparisons of calculated binding affinities between different compounds was performed using one-way analysis of variance (ANOVA) and a Tukey's post hoc test was performed to evaluate pair-wise differences. Significance between differences in values was defined as p<0.05.
(§4) Possible solvent effects were investigated for PFOA that was solubilized in each of the three solvents.

[1] = biological target: bovine serum albumin (BSA) (Bos taurus, UniProt P02769); experiment: DSF thermal shift assay of bovine serum albumin binding
Protocol: as §1, §2, §3
(§5) Binding affinities for certain PFAS compounds were also determined using PSA, BSA, and RSA.

[2] = biological target: Porcine serum albumin (PSA) (Sus scrofa, UniProt P08835); experiment: DSF thermal shift assay of porcine serum albumin binding
Protocol: as §1, §2, §3, §5

[3] = Source text: as §4
[4] = decarboxylation (Liberatore et al.); cited from earlier work
rat serum albumin (RSA) = rat serum albumin (RSA) (Rattus norvegicus, UniProt P02770); experiment: DSF thermal shift assay of rat serum albumin binding
Protocol: as §1, §2, §3, §5

[5] = PFAS, 4-parameter fit of Δ Tm, mean ± SEM
[6] = PFAS, single site ligand binding model, mean ± SEM
[7] = stock solvent DMSO (50% in HBS), mean ± SEM

Chain of bovine serum albumin (BSA) (P02769 25-607): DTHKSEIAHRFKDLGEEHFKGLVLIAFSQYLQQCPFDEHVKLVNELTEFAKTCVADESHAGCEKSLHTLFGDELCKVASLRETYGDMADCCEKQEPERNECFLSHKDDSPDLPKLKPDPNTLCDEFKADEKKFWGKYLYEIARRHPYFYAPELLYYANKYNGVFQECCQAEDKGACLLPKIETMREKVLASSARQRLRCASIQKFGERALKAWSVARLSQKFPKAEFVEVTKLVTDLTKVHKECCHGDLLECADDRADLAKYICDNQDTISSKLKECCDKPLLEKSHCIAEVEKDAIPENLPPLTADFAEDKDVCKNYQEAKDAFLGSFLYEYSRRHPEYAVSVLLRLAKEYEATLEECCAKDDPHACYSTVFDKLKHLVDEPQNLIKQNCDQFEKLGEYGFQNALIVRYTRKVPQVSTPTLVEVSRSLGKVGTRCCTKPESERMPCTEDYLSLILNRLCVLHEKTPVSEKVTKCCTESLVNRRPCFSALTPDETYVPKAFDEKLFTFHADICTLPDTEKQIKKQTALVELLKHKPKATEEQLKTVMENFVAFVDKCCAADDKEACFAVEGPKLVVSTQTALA
Chain of HSA (P02768 25-609): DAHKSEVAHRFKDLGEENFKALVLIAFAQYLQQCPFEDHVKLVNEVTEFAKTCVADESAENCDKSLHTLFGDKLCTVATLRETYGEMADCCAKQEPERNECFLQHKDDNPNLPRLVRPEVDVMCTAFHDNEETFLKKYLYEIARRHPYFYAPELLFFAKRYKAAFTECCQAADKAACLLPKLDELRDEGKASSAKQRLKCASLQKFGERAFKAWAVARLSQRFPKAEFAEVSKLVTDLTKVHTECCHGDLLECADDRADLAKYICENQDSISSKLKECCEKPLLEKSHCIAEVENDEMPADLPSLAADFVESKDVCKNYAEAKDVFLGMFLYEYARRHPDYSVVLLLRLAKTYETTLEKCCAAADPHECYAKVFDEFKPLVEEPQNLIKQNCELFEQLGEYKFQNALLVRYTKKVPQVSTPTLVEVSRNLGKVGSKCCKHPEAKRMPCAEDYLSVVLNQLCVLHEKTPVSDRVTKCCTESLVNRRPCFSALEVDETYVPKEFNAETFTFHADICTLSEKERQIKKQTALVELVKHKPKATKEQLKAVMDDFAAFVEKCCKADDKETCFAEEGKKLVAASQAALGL
Chain of rat serum albumin (RSA) (P02770 25-608): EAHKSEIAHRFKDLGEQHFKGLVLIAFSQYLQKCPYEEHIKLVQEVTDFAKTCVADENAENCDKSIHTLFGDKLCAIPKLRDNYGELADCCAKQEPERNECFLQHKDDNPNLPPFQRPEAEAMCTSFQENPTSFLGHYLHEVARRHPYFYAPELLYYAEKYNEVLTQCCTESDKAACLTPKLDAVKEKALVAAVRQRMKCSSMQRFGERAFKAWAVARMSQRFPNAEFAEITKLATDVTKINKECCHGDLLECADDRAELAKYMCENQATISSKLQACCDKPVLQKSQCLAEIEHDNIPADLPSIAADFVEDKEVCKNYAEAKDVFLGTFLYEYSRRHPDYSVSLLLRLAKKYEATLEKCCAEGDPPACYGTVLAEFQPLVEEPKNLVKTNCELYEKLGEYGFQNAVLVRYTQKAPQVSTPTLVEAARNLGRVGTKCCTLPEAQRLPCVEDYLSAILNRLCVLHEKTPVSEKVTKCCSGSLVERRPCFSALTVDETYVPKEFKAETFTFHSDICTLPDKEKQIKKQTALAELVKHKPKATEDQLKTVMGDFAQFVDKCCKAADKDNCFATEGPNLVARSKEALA
Chain of Porcine serum albumin (PSA) (P08835 25-607): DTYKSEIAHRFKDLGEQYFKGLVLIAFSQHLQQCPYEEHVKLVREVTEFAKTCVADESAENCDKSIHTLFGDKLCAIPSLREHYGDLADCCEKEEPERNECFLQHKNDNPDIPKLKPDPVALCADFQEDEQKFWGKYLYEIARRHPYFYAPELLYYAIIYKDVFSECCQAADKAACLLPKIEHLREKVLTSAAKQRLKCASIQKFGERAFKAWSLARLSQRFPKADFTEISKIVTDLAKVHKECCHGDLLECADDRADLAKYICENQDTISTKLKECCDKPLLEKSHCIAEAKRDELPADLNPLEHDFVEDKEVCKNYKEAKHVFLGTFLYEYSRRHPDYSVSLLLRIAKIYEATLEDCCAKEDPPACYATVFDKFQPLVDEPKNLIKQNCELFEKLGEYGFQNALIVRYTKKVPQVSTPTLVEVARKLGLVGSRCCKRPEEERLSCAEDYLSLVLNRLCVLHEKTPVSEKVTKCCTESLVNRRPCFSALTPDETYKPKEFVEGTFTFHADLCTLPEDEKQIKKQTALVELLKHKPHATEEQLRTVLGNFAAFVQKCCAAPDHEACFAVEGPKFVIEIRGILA

| Structure (SMILES) | Δ Tm (HSA; PFAS, 0.125 mM HSA, ± SEM) [°C] | EC50 (HSA; [5]) [µM] | Kd (HSA; [6]) [µM] | EC50 (HSA) [µM] | Kd (HSA) [µM] | also measured |
| --- | --- | --- | --- | --- | --- | --- |
| O=C(O)C(F)(F)C(F)(F)C(F)(F)C(F)(F)C(F)(F)C(F)(F)C(F)(F)C(F)(F)C(F)(F)C(F)(F)C(F)(F)F [PFDoA, perfluorododecanoic acid] | 7.74 ± 0.14 | 2510 ± 140 | 1890 ± 260 | – | – | – |
| CCCCCCCCCCCCCCCC(=O)O [Hexadecanoic Acid, hexadecanoic acid, reference compound] | – | – | – | 84 ± 21 | 30 ± 8 | – |
| O=S(=O)(O)CCC(F)(F)C(F)(F)C(F)(F)C(F)(F)F [4:2 FTSA, 2H,2H,3H,3H-Perfluorohexansulfonic acid] | 3.49 ± 0.084 | 1450 ± 140 | 1070 ± 190 | – | – | – |
| O=C(O)C(F)(F)C(F)(F)C(F)(F)C(F)(F)F [PFPeA, perfluoropentanoic acid] | – | – | – | 2140 ± 170 | 2100 ± 230 | – |
| O=C(O)CCC(F)(F)C(F)(F)C(F)(F)C(F)(F)C(F)(F)F [5:3 FTCA, 2H,2H,3H,3H-Perfluorooctanoic acid] | – | – | – | 1480 ± 100 | 620 ± 42 | – |
| O=C(O)CCC(F)(F)C(F)(F)C(F)(F)C(F)(F)C(F)(F)C(F)(F)F [6:3 FTCA, 2,H,2H,3H,3H-Perfluorononanoic acid] | – | – | – | 840 ± 86 | 810 ± 92 | – |
| O=C(O)C(F)(F)C(F)(F)C(F)(F)C(F)(F)C(F)(F)C(F)(F)C(F)(F)C(F)(F)C(F)(F)C(F)(F)F [PFunDA, Perfluoroundecanoic acid] | – | – | – | 1490 ± 24 | 1360 ± 530 | – |
| O=C(O)CCC(F)(F)C(F)(F)C(F)(F)F [3:3 FTCA, 2H,2H,3H,3H-Perfluorohexanoic acid] | – | – | – | 2060 ± 210 | 1710 ± 190 | – |
| O=C(O)C(F)(F)C(F)(F)C(F)(F)C(F)(F)C(F)(F)C(F)(F)C(F)(F)F [PFOA, perfluorooctanoic acid] | – | 840 ± 43 | – | – | – | Kd [1]: 750 ± 50 µM; Kd [2]: 320 ± 40 µM; Δ Tm (HSA; stock solvent DMSO (50% in HBS)): 13.2 °C; EC50 (HSA; [7]): 850 ± 10 µM; Kd (HSA; [7]): 840 ± 80 µM; Kd (HSA; stock solvent HEPES-buffered saline (HBS), mean ± SEM): 830 ± 110 µM; Δ Tm (HSA; stock solvent Methanol (30% in HBS)): 13.5 °C; EC50 (HSA; stock solvent Methanol (30% in HBS), mean ± SEM): 780 ± 70 µM |
| OCCC(F)(F)C(F)(F)C(F)(F)C(F)(F)C(F)(F)C(F)(F)F [6:2 FTOH, 1H,1H,2H,2H-Perfluorooctanol] | 0 ± 0 | – | – | – | – | bound by HSA (HSA): not bound by HSA |
| O=C(O)CCC(F)(F)C(F)(F)C(F)(F)C(F)(F)C(F)(F)C(F)(F)C(F)(F)C(F)(F)F [8:3 FTCA, 2,H,2H,3H,3H-Perfluoroundecanoate] | – | – | – | 1160 ± 170 | 970 ± 68 | aqueous solubility [3]: limited aqueous solubility |
| O=C(O)C(F)(F)C(F)(F)C(F)(F)C(F)(F)C(F)(F)C(F)(F)C(F)(F)C(F)(F)C(F)(F)F [PFDA, perfluorodecanoic acid] | – | – | – | 1110 ± 70 | 1190 ± 240 | – |
| O=C(O)C(F)(F)OC(F)(F)C(F)(F)OC(F)(F)C(F)(F)OC(F)(F)F [PFO3DoDA, Perfluoro-3,6,9-trioxadecanoic acid] | 20.6 ± 0.58 | 1670 ± 190 | 1530 ± 140 | – | – | – |
| O=C(O)C(F)(OC(F)(F)C(F)(F)C(F)(F)F)C(F)(F)F (stereo not drawn) [HFPO-DA, hexafluoropropylene oxide dimer acid] | 13.7 ± 0.12 | 1830 ± 250 | 1600 ± 160 | – | – | EC50 (HSA; HFPO-DA in DMSO (1:1 HBS and DMSO, room temperature 4 hours before analysis)): 2340 ± 230 µM; stability in DMSO [4]: rapidly converted to E1 |
| OCCC(F)(F)C(F)(F)C(F)(F)C(F)(F)F [4:2 FTOH, 1H,1H,2H,2H-Perfluorohexane-1-ol] | 0 ± 0 | – | – | – | – | bound by HSA (HSA): not bound by HSA |
| O=C(O)C(F)(F)C(F)(F)C(F)(F)F [PFBA, Perfluorobutanoic acid] | – | – | – | 2610 ± 190 | 2570 ± 320 | Kd (rat serum albumin (RSA)): 1390 ± 110 µM; Kd [1]: 980 ± 100 µM; Kd [2]: 1500 ± 110 µM |
| FC(OC(F)(F)C(F)(F)C(F)(F)F)C(F)(F)F (stereo not drawn) [E1, 1,1,1,2,2,3,3-Heptafluoro-3-(1,2,2,2-tetrafluoroethoxy)propane] | 7.32 ± 0.042 | 2340 ± 230 | 1640 ± 140 | – | – | – |
| O=C(O)C(F)(F)C(F)(F)C(F)(F)C(F)(F)C(F)(F)F [PFHxA, Perfluorohexanoic acid] | – | – | – | 1400 ± 110 | 1640 ± 190 | Kd (rat serum albumin (RSA)): 960 ± 70 µM; Kd [1]: 950 ± 110 µM; Kd [2]: 1420 ± 30 µM |
| O=S(=O)(O)C(F)(F)C(F)(F)C(F)(F)C(F)(F)C(F)(F)C(F)(F)F [PFHxS, perfluorohexanesulfonic acid] | 11.0 ± 0.17 | 980 ± 28 | 710 ± 190 | – | – | – |
| O=S(=O)(O)C(F)(F)C(F)(F)C(F)(F)C(F)(F)C(F)(F)C(F)(F)C(F)(F)C(F)(F)F [PFOS, perfluorooctanesulfonic acid] | – | – | – | 1130 ± 130 | – | – |
| O=S(=O)(O)CCC(F)(F)C(F)(F)C(F)(F)C(F)(F)C(F)(F)C(F)(F)F [6:2 FTSA, 2H,2H,3H,3H-Perfluorooctane-1-sulfonate] | 3.60 ± 0.33 | 470 ± 120 | 370 ± 140 | – | – | Kd ([1]; read-out: Bovine Kd ± SEM, bovine albumin): 930 ± 50 µM; Kd (HSA; read-out: Human Kd ± SEM, human albumin): 370 ± 140 µM |
| O=S(=O)(O)C(F)(F)C(F)(F)OC(F)(C(F)(F)F)C(F)(F)OC(F)C(F)(F)F (stereo not drawn) [Nafion bp2, 7H-perfluoro-4-methyl-3,6-dioxaoctanesulfonic acid] | – | – | – | 1900 ± 240 | 1510 ± 150 | – |
| O=C(O)C(F)(F)C(F)(F)C(F)(F)C(F)(F)C(F)(F)C(F)(F)C(F)(F)C(F)(F)F [PFNA, perfluorononanoic acid] | – | – | – | 600 ± 92 | 580 ± 87 | – |
| O=S(=O)(O)C(F)(F)C(F)(F)C(F)(F)C(F)(F)F [PFBS, Perfluorobutanesulfonic acid] | – | – | – | 1720 ± 230 | 1650 ± 280 | Kd (rat serum albumin (RSA)): 930 ± 80 µM; Kd [1]: 1130 ± 80 µM; Kd [2]: 1550 ± 40 µM |
| O=C(O)C(F)(F)C(F)(F)C(F)(F)C(F)(F)C(F)(F)C(F)(F)F [PFHpA, perfluoroheptanoic acid] | 15.3 ± 0.29 | 680 ± 60 | 440 ± 80 | – | – | – |
